Literature values as cited in patent publication US20110294815A1, “PROSTACYCLIN ANALOGS” (priority 2008, published 2011).

Settings: patients with hepatic insufficiency vs healthy adults

reduction of clearance compared to healthy adults: up to 80%
SMILES: CCCCC[C@H](O)CC[C@@H]1[C@H]2Cc3cccc(OCC(=O)[O-])c3C[C@H]2C[C@H]1O.[Na+] [treprostinil, (1R,2R,3aS,9aS)-[[2,3,3a,4,9,9a-Hexahydro-2-hydroxy-1-[(3S)-3-hydroxyoctyl]-1H-benz[f]inden-5-yl]oxy]acetic acid monosodium salt]
